Results from PMC12892976, “Alkylation-based optimization of antifungal FPPS inhibitors yields a potent, broad-spectrum lipophilic zoledronate derivative” (mBio, 2025).
Converted amounts (≈) assume the structure as drawn.

What was measured:
Microsporum canis [1] = test: checkerboard drug interaction (FICI, MICc); type: cell-based;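 also: simplified diagonal checkerboard screen pairing antifungals with FPPS inhibitors, FICI calculated under the Loewe additivity model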
Protocol: (§1) Drug interactions between antifungals and FPPS inhibitors were investigated using a simplified checkerboard diagonal screening method ([45]). […] FICIs were determined according to the Loewe additivity model ([17]).

Aspergillus udagawae = test: checkerboard drug interaction (FICI, MICc); type: cell-based;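 also: simplified diagonal checkerboard screen pairing antifungals with FPPS inhibitors, FICI calculated using the Loewe additivity model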
Protocol: as §1

Microsporum canis [2] = test: MIC broth microdilution (CLSI); settings: Microsporum canis R-232
Protocol: (§2) Antifungal susceptibility was determined by broth microdilution according to the CLSI guidelines described in M27-Ed4 ([16]).

Rhizopus oryzae [3] = test: checkerboard drug interaction (FICI, MICc); type: cell-based;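 also: simplified diagonal checkerboard screen pairing antifungals with FPPS inhibitors, FICI calculated under the Loewe additivity model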
Protocol: as §1

Mucor circinelloides = test: MIC broth microdilution (CLSI); type: cell-based; settings: Mucor circinelloides 80-14-240-5007
Protocol: as §2

Lomentospora prolificans = test: checkerboard drug interaction (FICI, MICc);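 also: simplified diagonal checkerboard screen pairing antifungals with FPPS inhibitors, FICI calculated under the Loewe additivity model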
Protocol: as §1

[4] = system: Trichophyton interdigitale; test: MIC broth microdilution (CLSI); type: cell-based; settings: Trichophyton interdigitale R-234
Protocol: as §2

Candida parapsilosis = test: MIC broth microdilution (CLSI); type: cell-based; settings: Candida parapsilosis ATCC 22018
Protocol: (§3) Antifungal susceptibility was determined by broth microdilution according to the CLSI guidelines described in M27-Ed4 ([16]). […] MFC was determined by back-plating drug-treated cultures from MIC broths onto SDA plates. The MFC was defined as the lowest concentration from which no colonies could be cultured.

[5] = system: Cryptococcus deneoformans; test: checkerboard drug interaction (FICI, MICc); type: cell-based;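 also: simplified diagonal checkerboard screen pairing antifungals with FPPS inhibitors, FICI calculated under the Loewe additivity model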
Protocol: as §1

Aspergillus felis = test: MIC broth microdilution (CLSI); type: cell-based; settings: Aspergillus felis IHE87256683D6
Protocol: as §2

Cryptococcus tetragattii = test: checkerboard drug interaction (FICI, MICc); type: cell-based;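 also: simplified diagonal checkerboard screen pairing antifungals with FPPS inhibitors, with FICI calculated under the Loewe additivity model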
Protocol: as §1

Aspergillus terreus = test: MIC broth microdilution (CLSI); type: cell-based; settings: Aspergillus terreus 75-16-089-2500
Protocol: as §2

Epidermophyton floccosum = test: checkerboard drug interaction (FICI, MICc)
Protocol: as §1

Rhizopus oryzae [6] = test: MIC broth microdilution (CLSI); type: cell-based; settings: Rhizopus oryzae 04-14-364-1703
Protocol: as §2

Aspergillus lentulus [7] = test: checkerboard drug interaction (FICI, MICc); type: cell-based;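 also: simplified diagonal checkerboard screen pairing antifungals with FPPS inhibitors, with the interaction index calculated under the Loewe additivity model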
Protocol: as §1

Cryptococcus gattii [8] = test: checkerboard drug interaction (FICI, MICc); type: cell-based;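 also: simplified diagonal checkerboard screen pairing antifungals with FPPS inhibitors, FICI computed under the Loewe additivity model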
Protocol: as §1

Pichia kudriavzevii [9] = test: MIC broth microdilution (CLSI); type: cell-based; settings: Pichia kudriavzavii ATCC 6258
Protocol: as §3

Nannizzia nana = test: MIC broth microdilution (CLSI); type: cell-based; settings: Nannizzia nana R-133
Protocol: as §2

Nannizzia gypsea [10] = test: MIC broth microdilution (CLSI); type: cell-based; settings: Nannizzia gypsea R-131
Protocol: as §2

Scedosporium apiospermum [11] = test: MIC broth microdilution (CLSI); type: cell-based; settings: Scedosporium apiospermum 04-16-022-2268
Protocol: as §2

Aspergillus niger = test: MIC broth microdilution (CLSI); type: cell-based; settings: Aspergillus niger 111
Protocol: as §2

Candida auris = test: MIC broth microdilution (CLSI); type: cell-based; settings: Candida auris CDC-0384
Protocol: as §2

Fusarium solani [12] = test: MIC broth microdilution (CLSI); settings: Fusarium solani 04-16-056-1862
Protocol: as §2

[13] = system: Trichophyton interdigitale; test: checkerboard drug interaction (FICI, MICc);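 also: simplified diagonal checkerboard screen pairing antifungals with FPPS inhibitors, FICI values calculated under the Loewe additivity model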
Protocol: as §1

Scedosporium apiospermum [14] = test: checkerboard drug interaction (FICI, MICc); type: cell-based;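 also: simplified diagonal checkerboard screen of antifungal plus FPPS inhibitor pairs, with FICI computed under the Loewe additivity model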
Protocol: as §1

Aspergillus lentulus [15] = test: MIC broth microdilution (CLSI); type: cell-based; settings: Aspergillus lentulus DTO 341-G7
Protocol: as §2

Nannizzia gypsea [16] = test: checkerboard drug interaction (FICI, MICc);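 also: simplified diagonal checkerboard screen pairing antifungals with FPPS inhibitors, FICI derived using the Loewe additivity model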
Protocol: as §1

Paraphyton cookei [17] = test: checkerboard drug interaction (FICI, MICc);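 also: simplified diagonal checkerboard screen pairing an antifungal with an FPPS inhibitor, FICI computed under the Loewe additivity model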
Protocol: as §1

Fusarium solani [18] = test: checkerboard drug interaction (FICI, MICc); type: cell-based;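 also: simplified diagonal checkerboard screen pairing antifungals with FPPS inhibitors, FICI derived under the Loewe additivity model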
Protocol: as §1

Candida dubliniensis = test: MIC broth microdilution (CLSI); type: cell-based; settings: Candida dubliniensis M230642
Protocol: as §2

Paraphyton cookei [19] = test: MIC broth microdilution (CLSI); type: cell-based; settings: Paraphyton cookei R-639
Protocol: as §2

Cryptococcus gattii [20] = test: MIC broth microdilution (CLSI); type: cell-based; settings: Cryptococcus gattii PNG27
Protocol: as §2

[21] = system: Cryptococcus bacillisporus; test: checkerboard drug interaction (FICI, MICc); type: cell-based;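 also: interaction of antifungals with FPPS inhibitors assessed by a simplified diagonal checkerboard screen, with FICI computed under the Loewe additivity model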
Protocol: as §1

Pichia kudriavzevii [22] = test: checkerboard drug interaction (FICI, MICc); type: cell-based;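 also: antifungal plus FPPS inhibitor interactions tested in a simplified diagonal checkerboard screen, with FICI calculated under the Loewe additivity model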
Protocol: as §1

Aspergillus parafelis = test: checkerboard drug interaction (FICI, MICc)
Protocol: as §1

## CC(=O)N1CCN(c2ccc(OCC3COC(Cn4ccnc4)(c4ccc(Cl)cc4Cl)O3)cc2)CC1 (stereo not shown) [KET, ketoconazole]
Microsporum canis [1]; in combination with 10-ZOL
  antifungal MICc: 1
Microsporum canis [1]; in combination with ZOL
  antifungal MICc: 4
Aspergillus udagawae; in combination with 10-ZOL
  antifungal MICc: 0.5
Aspergillus udagawae; in combination with ZOL
  antifungal MICc: 2
Microsporum canis [2]
  MIC / MEC: 16 mg/L (≈ 30.1 µM)
Rhizopus oryzae [3]; in combination with 10-ZOL
  antifungal MICc: 4
Rhizopus oryzae [3]; in combination with ZOL
  antifungal MICc: 16
Mucor circinelloides
  MIC / MEC: 16 mg/L (≈ 30.1 µM)
Lomentospora prolificans; in combination with 10-ZOL
  antifungal MICc: 0.25
Lomentospora prolificans; in combination with ZOL
  antifungal MICc: 2
[4]
  MIC / MEC: 8 mg/L (≈ 15.1 µM)
Candida parapsilosis
  MIC / MEC: 0.03 mg/L (≈ 0.0565 µM)
[5]; in combination with 10-ZOL
  antifungal MICc: 0.063
[5]; in combination with ZOL
  antifungal MICc: 0.03125
Aspergillus felis
  MIC / MEC: 16 mg/L (≈ 30.1 µM)
Cryptococcus tetragattii; in combination with 10-ZOL
  antifungal MICc: 0.125
Cryptococcus tetragattii; in combination with ZOL
  antifungal MICc: 0.25
Aspergillus terreus
  MIC / MEC: 2 mg/L (≈ 3.76 µM)
Epidermophyton floccosum; in combination with 10-ZOL
  antifungal MICc: 1
Epidermophyton floccosum; in combination with ZOL
  antifungal MICc: 0.5
Rhizopus oryzae [6]
  MIC / MEC: >16 mg/L
Aspergillus lentulus [7]; in combination with 10-ZOL
  antifungal MICc: 4
Aspergillus lentulus [7]; in combination with ZOL
  antifungal MICc: 4
Cryptococcus gattii [8]; in combination with 10-ZOL
  antifungal MICc: 0.125
Cryptococcus gattii [8]; in combination with ZOL
  antifungal MICc: 0.5
Pichia kudriavzevii [9]
  MIC / MEC: 0.25 mg/L (≈ 0.47 µM)
Nannizzia nana
  MIC / MEC: 0.5 mg/L (≈ 0.941 µM)
Nannizzia gypsea [10]
  MIC / MEC: 16 mg/L (≈ 30.1 µM)
Scedosporium apiospermum [11]
  MIC / MEC: 8 mg/L (≈ 15.1 µM)
Aspergillus niger
  MIC / MEC: 8 mg/L (≈ 15.1 µM)
Candida auris
  MIC / MEC: 4 mg/L (≈ 7.53 µM)
Fusarium solani [12]
  MIC / MEC: 16 mg/L (≈ 30.1 µM)
[13]; in combination with 10-ZOL
  antifungal MICc: 0.5
[13]; in combination with ZOL
  antifungal MICc: 2
Scedosporium apiospermum [14]; in combination with 10-ZOL
  antifungal MICc: 4
Scedosporium apiospermum [14]; in combination with ZOL
  antifungal MICc: 4
Aspergillus lentulus [15]
  MIC / MEC: 16 mg/L (≈ 30.1 µM)
Nannizzia gypsea [16]; in combination with 10-ZOL
  antifungal MICc: 2
Nannizzia gypsea [16]; in combination with ZOL
  antifungal MICc: 1
Paraphyton cookei [17]; in combination with 10-ZOL
  antifungal MICc: 1
Paraphyton cookei [17]; in combination with ZOL
  antifungal MICc: 4
Fusarium solani [18]; in combination with 10-ZOL
  antifungal MICc: 4
Fusarium solani [18]; in combination with ZOL
  antifungal MICc: 4
Candida dubliniensis
  MIC / MEC: 0.02 mg/L (≈ 0.0376 µM)
Paraphyton cookei [19]
  MIC / MEC: 8 mg/L (≈ 15.1 µM)
Cryptococcus gattii [20]
  MIC / MEC: 0.5 mg/L (≈ 0.941 µM)
[21]; in combination with 10-ZOL
  antifungal MICc: 0.125
[21]; in combination with ZOL
  antifungal MICc: 0.25
Pichia kudriavzevii [22]; in combination with 10-ZOL
  antifungal MICc: 0.25
Pichia kudriavzevii [22]; in combination with ZOL
  antifungal MICc: 0.06
Aspergillus parafelis; in combination with 10-ZOL
  antifungal MICc: 16
Aspergillus parafelis; in combination with ZOL
  antifungal MICc: 32

## C[C@@H](c1ncncc1F)[C@](O)(Cn1cncn1)c1ccc(F)cc1F [VOR]
Microsporum canis [1]; in combination with 10-ZOL
  antifungal MICc: 0.031
Microsporum canis [1]; in combination with ZOL
  antifungal MICc: 0.015
Aspergillus udagawae; in combination with 10-ZOL
  antifungal MICc: 0.03
Aspergillus udagawae; in combination with ZOL
  antifungal MICc: 0.5
Microsporum canis [2]
  MIC / MEC: 0.03 mg/L (≈ 0.0859 µM)
Rhizopus oryzae [3]; in combination with 10-ZOL
  antifungal MICc: 8
Rhizopus oryzae [3]; in combination with ZOL
  antifungal MICc: 8
Mucor circinelloides
  MIC / MEC: 8 mg/L (≈ 22.9 µM)
Lomentospora prolificans; in combination with 10-ZOL
  antifungal MICc: 2
Lomentospora prolificans; in combination with ZOL
  antifungal MICc: 16
[4]
  MIC / MEC: 0.25 mg/L (≈ 0.716 µM)
Candida parapsilosis
  MIC / MEC: 0.13 mg/L (≈ 0.372 µM)
[5]; in combination with 10-ZOL
  antifungal MICc: 0.063
[5]; in combination with ZOL
  antifungal MICc: 0.0625
Aspergillus felis
  MIC / MEC: 2 mg/L (≈ 5.73 µM)
Cryptococcus tetragattii; in combination with 10-ZOL
  antifungal MICc: 0.063
Cryptococcus tetragattii; in combination with ZOL
  antifungal MICc: 0.125
Aspergillus terreus
  MIC / MEC: 0.25 mg/L (≈ 0.716 µM)
Epidermophyton floccosum; in combination with 10-ZOL
  antifungal MICc: 0.032
Epidermophyton floccosum; in combination with ZOL
  antifungal MICc: 0.25
Rhizopus oryzae [6]
  MIC / MEC: 16 mg/L (≈ 45.8 µM)
Aspergillus lentulus [7]; in combination with 10-ZOL
  antifungal MICc: 0.5
Aspergillus lentulus [7]; in combination with ZOL
  antifungal MICc: 0.5
Cryptococcus gattii [8]; in combination with 10-ZOL
  antifungal MICc: 0.033
Cryptococcus gattii [8]; in combination with ZOL
  antifungal MICc: 0.06
Pichia kudriavzevii [9]
  MIC / MEC: 0.5 mg/L (≈ 1.43 µM)
Nannizzia nana
  MIC / MEC: 0.06 mg/L (≈ 0.172 µM)
Nannizzia gypsea [10]
  MIC / MEC: 0.25 mg/L (≈ 0.716 µM)
Scedosporium apiospermum [11]
  MIC / MEC: 1 mg/L (≈ 2.86 µM)
Aspergillus niger
  MIC / MEC: 1 mg/L (≈ 2.86 µM)
Candida auris
  MIC / MEC: 2 mg/L (≈ 5.73 µM)
Fusarium solani [12]
  MIC / MEC: 1 mg/L (≈ 2.86 µM)
[13]; in combination with 10-ZOL
  antifungal MICc: 0.063
[13]; in combination with ZOL
  antifungal MICc: 0.0625
Scedosporium apiospermum [14]; in combination with 10-ZOL
  antifungal MICc: 0.5
Scedosporium apiospermum [14]; in combination with ZOL
  antifungal MICc: 1
Aspergillus lentulus [15]
  MIC / MEC: 4 mg/L (≈ 11.5 µM)
Nannizzia gypsea [16]; in combination with 10-ZOL
  antifungal MICc: 0.25
Nannizzia gypsea [16]; in combination with ZOL
  antifungal MICc: 0.0625
Paraphyton cookei [17]; in combination with ZOL
  antifungal MICc: 0.125
Fusarium solani [18]; in combination with 10-ZOL
  antifungal MICc: 0.5
Fusarium solani [18]; in combination with ZOL
  antifungal MICc: 1
Candida dubliniensis
  MIC / MEC: 0.06 mg/L (≈ 0.172 µM)
Paraphyton cookei [19]
  MIC / MEC: 0.5 mg/L (≈ 1.43 µM)
Cryptococcus gattii [20]
  MIC / MEC: 0.06 mg/L (≈ 0.172 µM)
[21]; in combination with 10-ZOL
  antifungal MICc: 0.03
[21]; in combination with ZOL
  antifungal MICc: 0.125
Pichia kudriavzevii [22]; in combination with 10-ZOL
  antifungal MICc: 0.5
Pichia kudriavzevii [22]; in combination with ZOL
  antifungal MICc: 1
Aspergillus parafelis; in combination with 10-ZOL
  antifungal MICc: 2
Aspergillus parafelis; in combination with ZOL
  antifungal MICc: 2
